This note sets out measurements from patent US20230265151A1, “GIP/GLP1 CO-AGONIST COMPOUNDS” (priority 2020, published 2023).

Format in all cases: cell-based
In test [1] the target is T1, hGIPR (Homo sapiens, UniProt P48546).
T1 construct: expressed in transfected cells
T1 sequence (P48546 22-466): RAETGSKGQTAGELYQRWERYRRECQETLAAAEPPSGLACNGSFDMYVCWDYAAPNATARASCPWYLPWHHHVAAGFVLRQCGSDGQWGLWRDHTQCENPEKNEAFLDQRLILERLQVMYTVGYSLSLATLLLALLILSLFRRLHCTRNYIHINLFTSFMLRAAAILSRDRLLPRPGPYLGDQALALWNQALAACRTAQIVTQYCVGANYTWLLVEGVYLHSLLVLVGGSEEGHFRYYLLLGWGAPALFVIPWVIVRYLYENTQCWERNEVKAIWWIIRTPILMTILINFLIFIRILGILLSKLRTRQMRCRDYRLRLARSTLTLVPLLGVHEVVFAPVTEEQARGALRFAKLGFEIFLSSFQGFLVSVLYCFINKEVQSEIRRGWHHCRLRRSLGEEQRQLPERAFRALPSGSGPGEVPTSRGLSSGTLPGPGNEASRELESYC
Nature of the test: Functional cAMP formation (HTRF) in HEK-293 clonal cells expressing hGIPR, 0.1% bovine casein, without or with 1.0% human serum albumin. The following applies: for EC50: cAMP, 0.1% bovine casein (no human serum albumin), geometric mean. Put shortly:
(§1)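 Cells were stimulated with peptide for 30 min at 37° C, then lysed in buffer carrying cAMP-d2 and anti-cAMP Eu3+-cryptate for a competitive HTRF read after at least 60 min at room temperature. The 665/620 nm ratio was converted to nM cAMP against a standard curve.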

Test [2] addresses hGLP-1R (Homo sapiens, UniProt P43220). Nature of the test: Functional cAMP formation (HTRF) in HEK-293 clonal cells expressing hGLP-1R, 0.1% bovine casein, without or with 1.0% human serum albumin. Further details: expressed in transfected cells. The following applies: for EC50: cAMP. Put shortly:
as §1

Test [3] deals with T2, hGCGR (Homo sapiens, UniProt P47871).
T2 construct: expressed in transfected cells
Nature of the test: Functional cAMP formation (HTRF) in HEK-293 clonal cells expressing hGCGR, 0.1% bovine casein, without or with 1.0% human serum albumin. The method in brief: as §1
For orientation: Changes in cAMP serve as a functional read-out for many G protein-coupled receptors.

Read-outs that look alike come from different tables or passages of the source. *1 amine or outer side, *2 acyl side, *3 side chain or, on linkers, in order; H or OH if unused. Where a SMILES comes first, the peptide text is derived from it. Side-chain parts run from the residue outwards. [ ]: non-standard residue; d: D form. The star is where a group is joined. Undecanoyl(11-OPh(4-COOH)) = O=C(O)c1ccc(OCCCCCCCCCCC(=O)*)cc1; αMePhe(2-F) = C[C@](N)(Cc1ccccc1F)C(=O)O; γGlu = O=C(O)[C@H](CCC(=O)[*:2])N[*:1]; αMeY = C[C@](N)(Cc1ccc(O)cc1)C(=O)O; 4Pal = N[C@@H](Cc1ccncc1)C(=O)O; αMeL = CC(C)C[C@](C)(N)C(=O)O; Orn = NCCC[C@H](N)C(=O)O; AEEA = NCCOCCOCC(=O)O; Aib = CC(C)(N)C(=O)O

Chain of hGLP-1R (P43220 24-463): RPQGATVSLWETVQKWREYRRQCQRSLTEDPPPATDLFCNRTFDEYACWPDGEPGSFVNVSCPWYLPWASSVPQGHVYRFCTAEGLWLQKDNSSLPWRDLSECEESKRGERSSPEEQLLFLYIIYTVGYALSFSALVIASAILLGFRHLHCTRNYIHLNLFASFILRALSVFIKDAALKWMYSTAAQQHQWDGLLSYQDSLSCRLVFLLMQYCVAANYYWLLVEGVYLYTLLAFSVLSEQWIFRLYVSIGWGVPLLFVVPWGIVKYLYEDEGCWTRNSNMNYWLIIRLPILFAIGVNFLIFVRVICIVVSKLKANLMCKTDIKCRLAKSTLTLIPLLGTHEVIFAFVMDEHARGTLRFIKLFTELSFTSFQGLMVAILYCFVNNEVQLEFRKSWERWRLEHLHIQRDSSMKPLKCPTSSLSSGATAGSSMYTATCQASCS
T2 sequence (P47871 26-477): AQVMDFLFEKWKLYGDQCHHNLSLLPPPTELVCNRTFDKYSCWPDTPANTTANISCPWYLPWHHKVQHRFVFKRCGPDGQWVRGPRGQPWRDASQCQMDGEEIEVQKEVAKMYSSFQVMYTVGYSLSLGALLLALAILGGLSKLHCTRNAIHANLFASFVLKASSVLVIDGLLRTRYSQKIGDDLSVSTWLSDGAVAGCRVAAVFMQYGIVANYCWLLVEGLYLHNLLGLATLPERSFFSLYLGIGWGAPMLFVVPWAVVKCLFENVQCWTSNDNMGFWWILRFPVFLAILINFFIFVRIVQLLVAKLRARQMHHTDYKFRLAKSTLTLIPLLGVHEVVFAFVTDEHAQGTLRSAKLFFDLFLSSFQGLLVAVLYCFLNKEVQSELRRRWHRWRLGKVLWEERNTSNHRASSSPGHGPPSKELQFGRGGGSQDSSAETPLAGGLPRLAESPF

On to `CC[C@H](C)[C@H](NC(=O)[C@H](CCCN)NC(=O)[C@H](CC(=O)O)NC(=O)[C@H](CC(C)C)NC(=O)[C@](C)(CC(C)C)NC(=O)[C@@H](NC(=O)C(C)(C)NC(=O)[C@H](Cc1ccncc1)NC(=O)[C@H](CC(=O)O)NC(=O)[C@H](CO)NC(=O)[C@@H](NC(=O)[C@](C)(Cc1ccccc1F)NC(=O)[C@@H](NC(=O)CNC(=O)[C@H](CCC(=O)O)NC(=O)C(C)(C)NC(=O)[C@@H](N)Cc1ccc(O)cc1)[C@@H](C)O)[C@@H](C)O)[C@@H](C)CC)C(=O)N[C@@H](C)C(=O)N[C@@H](CCC(N)=O)C(=O)NC(C)(C)C(=O)N[C@@H](CCCCNC(=O)COCCOCCNC(=O)COCCOCCNC(=O)CC[C@H](NC(=O)CCCCCCCCCCOc1ccc(C(=O)O)cc1)C(=O)O)C(=O)N[C@@H](Cc1ccccc1)C(=O)N[C@H](C(=O)N[C@H](CCC(=O)O)C(=O)N[C@@](C)(Cc1ccc(O)cc1)C(=O)N[C@@H](CC(C)C)C(=O)N[C@H](C(=O)N[C@@H](CCC(=O)O)C(=O)NCC(=O)NCC(=O)N1CCC[C@H]1C(=O)N[C@@H](CO)C(=O)N[C@@H](CO)C(=O)NCC(=O)N[C@@H](C)C(=O)N1CCC[C@H]1C(=O)N1CCC[C@H]1C(=O)N1CCC[C@H]1C(=O)N[C@@H](CO)C(=O)N[C@@H](CCCCNC(=O)COCCOCCNC(=O)COCCOCCNC(=O)CC[C@H](NC(=O)CCCCCCCCCCOc1ccc(C(=O)O)cc1)C(=O)O)C(N)=O)[C@@H](C)CC)[C@@H](C)CC` [Example 242] (H-Y[Aib]EGT[αMePhe(2-F)]TSD[4Pal][Aib]I[αMeL]LD[Orn]IAQ[Aib]K([AEEA-AEEA-γGlu-Undecanoyl(11-OPh(4-COOH))])FI[dE][αMeY]LIEGGPSSGAPPPSK([AEEA-AEEA-γGlu-Undecanoyl(11-OPh(4-COOH))])-NH2), for which the maximal effect (Emax) came out at 83.9% in test [1] (HEK293, read-out: hGIPR Emax, % ± SEM, 0.1% bovine casein and 1.0% human serum albumin, 37° C., percent of maximal response to GIP(1-42)NH2); 100% in test [1] (HEK293, read-out: hGIPR Emax, % ± SEM, percent of maximal response to GIP(1-42)NH2, 37° C., 0.1% bovine casein, arithmetic mean); 96.3% in test [2] (HEK293, read-out: hGLP-1R Emax, % ± SEM, percent of maximal response to GLP-1(7-36)NH2, 37° C., 0.1% bovine casein, arithmetic mean). Further, the EC50 in test [1] (hGIPR EC50, nM (SEM, n), incubated at 37° C.) was 0.0197 nM; in test [2] (hGLP-1R EC50, nM (SEM, n), incubated at 37° C., 0.1% bovine casein (no human serum albumin), geometric mean), 0.584 nM; in test [3] (hGCGR EC50, nM (SEM, n), 0.1% bovine casein and 1.0% human serum albumin, 37° C., geometric mean), over 9950 nM; in test [3] (hGCGR EC50, nM (SEM, n), cAMP, incubated at 37° C., 0.1% bovine casein (no human serum albumin), geometric mean), over 9950 nM.
Turning to `CC[C@H](C)[C@H](NC(=O)[C@H](CC(C)C)NC(=O)[C@](C)(Cc1ccc(O)cc1)NC(=O)[C@@H](CCC(=O)O)NC(=O)[C@@H](NC(=O)[C@H](Cc1ccccc1)NC(=O)[C@H](CCC(=O)O)NC(=O)C(C)(C)NC(=O)[C@H](CCC(N)=O)NC(=O)[C@H](C)NC(=O)[C@H](CCCCNC(=O)COCCOCCNC(=O)COCCOCCNC(=O)CC[C@H](NC(=O)CCCCCCCCCCCCC(=O)O)C(=O)O)NC(=O)[C@H](CCCN)NC(=O)[C@H](CC(=O)O)NC(=O)[C@H](CC(C)C)NC(=O)[C@](C)(CC(C)C)NC(=O)[C@@H](NC(=O)C(C)(C)NC(=O)[C@@H](NC(=O)[C@H](CC(=O)O)NC(=O)[C@H](CO)NC(=O)[C@@H](NC(=O)[C@](C)(Cc1ccccc1F)NC(=O)[C@@H](NC(=O)CNC(=O)[C@H](CCC(=O)O)NC(=O)C(C)(C)NC(=O)[C@@H](N)Cc1ccc(O)cc1)[C@@H](C)O)[C@@H](C)O)C(C)C)[C@@H](C)CC)[C@@H](C)CC)C(=O)N[C@@H](CCCCNC(=O)COCCOCCNC(=O)COCCOCCNC(=O)CC[C@H](NC(=O)CCCCCCCCCCCCC(=O)O)C(=O)O)C(=O)NCC(=O)NCC(=O)N1CCC[C@H]1C(=O)N[C@@H](CO)C(=O)N[C@@H](CO)C(=O)NCC(=O)N[C@@H](C)C(=O)N1CCC[C@H]1C(=O)N1CCC[C@H]1C(=O)N1CCC[C@H]1C(=O)N[C@@H](CO)C(N)=O` [Example 325], the Emax was determined as 94.7% in test [1] (HEK293, cAMP, 37° C., 0.1% bovine casein and 1.0% human serum albumin, percent of maximal response to GIP(1-42)NH2, read-out: hGIPR Emax, % ± SEM); 97.8% in test [2] (HEK293, cAMP, 37° C., 0.1% bovine casein, percent of maximal response to GLP-1(7-36)NH2, arithmetic mean, read-out: hGLP-1R Emax, % ± SEM). In addition, the EC50 in test [1] (37° C., read-out: hGIPR EC50, nM (SEM, n)) was 0.0485 nM; in test [2] (37° C., 0.1% bovine casein (no human serum albumin), geometric mean, read-out: hGLP-1R EC50, nM (SEM, n)) it was 0.225 nM; in test [3] (cAMP, 37° C., 0.1% bovine casein (no human serum albumin), geometric mean, read-out: hGCGR EC50, nM (SEM, n)) it was over 9950 nM; in test [3] (cAMP, 37° C., 0.1% bovine casein and 1.0% human serum albumin, geometric mean (SEM, n), read-out: hGCGR EC50, nM (SEM, n)), over 9950 nM.
As to `CC[C@H](C)[C@H](NC(=O)[C@H](CCCN)NC(=O)[C@H](CC(=O)O)NC(=O)[C@H](CC(C)C)NC(=O)[C@](C)(CC(C)C)NC(=O)[C@@H](NC(=O)C(C)(C)NC(=O)[C@@H](NC(=O)[C@H](CC(=O)O)NC(=O)[C@H](CO)NC(=O)[C@@H](NC(=O)[C@](C)(Cc1ccccc1F)NC(=O)[C@@H](NC(=O)CNC(=O)[C@H](CCC(=O)O)NC(=O)C(C)(C)NC(=O)[C@@H](N)Cc1ccc(O)cc1)[C@@H](C)O)[C@@H](C)O)C(C)C)[C@@H](C)CC)C(=O)N[C@@H](C)C(=O)N[C@@H](CCC(N)=O)C(=O)NC(C)(C)C(=O)N[C@@H](CCCN)C(=O)N[C@@H](Cc1ccccc1)C(=O)N[C@H](C(=O)N[C@@H](CCCCNC(=O)COCCOCCNC(=O)COCCOCCNC(=O)CC[C@H](NC(=O)CCCCCCCCCOc1ccc(C(=O)O)cc1)C(=O)O)C(=O)N[C@@](C)(Cc1ccc(O)cc1)C(=O)N[C@@H](CC(C)C)C(=O)N[C@H](C(=O)N[C@@H](CCCCNC(=O)COCCOCCNC(=O)COCCOCCNC(=O)CC[C@H](NC(=O)CCCCCCCCCOc1ccc(C(=O)O)cc1)C(=O)O)C(=O)NCC(=O)NCC(=O)N1CCC[C@H]1C(=O)N[C@@H](CO)C(=O)N[C@@H](CO)C(=O)NCC(=O)N[C@@H](C)C(=O)N1CCC[C@H]1C(=O)N1CCC[C@H]1C(=O)N1CCC[C@H]1C(=O)N[C@@H](CO)C(N)=O)[C@@H](C)CC)[C@@H](C)CC` [Example 356], the maximum response (Emax) worked out at 82.7% in test [1] (HEK293, read-out: hGIPR Emax, % ± SEM, cAMP, 37° C., 0.1% bovine casein and 1.0% human serum albumin, percent of maximal response to GIP(1-42)NH2); 96.2% in test [1] (HEK293, read-out: hGIPR Emax, % ± SEM, cAMP, 37° C., 0.1% bovine casein, percent of maximal response to GIP(1-42)NH2, arithmetic mean); 93% in test [2] (HEK293, read-out: hGLP-1R Emax, % ± SEM, cAMP, 37° C., 0.1% bovine casein and 1.0% human serum albumin, percent of maximal response to GLP-1(7-36)NH2). Also, the EC50 in test [1] (hGIPR EC50, nM (SEM, n), 37° C.) was 0.0488 nM; in test [2] (hGLP-1R EC50, nM (SEM, n), 37° C., 0.1% bovine casein (no human serum albumin), geometric mean) it was 0.936 nM; in test [2] (hGLP-1R EC50, nM (SEM, n), 37° C., 0.1% bovine casein and 1.0% human serum albumin, geometric mean (SEM, n)) it was 23.4 nM; in test [3] (hGCGR EC50, nM (SEM, n), cAMP, 37° C., 0.1% bovine casein (no human serum albumin), geometric mean), over 9950 nM; in test [3] (hGCGR EC50, nM (SEM, n), cAMP, 37° C., 0.1% bovine casein and 1.0% human serum albumin, geometric mean (SEM, n)), over 9950 nM.

The term Emax denotes the size of the effect at its maximum, as opposed to the concentration needed. A word on the EC50: it is the concentration at which the effect is half-maximal.
